Data: paper PMC8286840, “Identifying SARS-CoV-2 antiviral compounds by screening for small molecule inhibitors of Nsp3 papain-like protease” (Biochemical Journal, 2021)
Counter-ions that a name gives are not always drawn. Like-named read-outs stand apart in the source and are kept apart here.

Columns and labels:
[1] = target: T1, SARS-CoV-2 PLpro (nsp3 1564–1878) (Severe acute respiratory syndrome coronavirus 2, UniProt P0DTD1); test: biochemical; design: FRET-quenched peptide (Pro3) cleavage by PLpro, 10 min pre-incubation, slope over 20 min, normalised to no-compound control; conditions: low concentration screen, read-out: % of control remaining
[2] = target: T1, SARS-CoV-2 PLpro (nsp3 1564–1878); test: biochemical; design: FRET-quenched peptide (Pro3) cleavage by PLpro, 10 min pre-incubation, slope over 20 min, normalised to no-compound control; conditions: high concentration screen, read-out: % of control remaining

SMILES: CCCCOc1cc(CC2CNC(=O)N2)ccc1OC (stereo not drawn) [Ro 20-1724]
- remaining activity at 1.25 µM ([1]; Well no.=225): 102%
- remaining activity at 3.75 µM ([2]; Well no.=225): 100%

SMILES: C[C@@H](CN1CCC(Cc2ccccc2)CC1)[C@@H](O)c1ccc(O)cc1 [Ro 25-6981 hydrochloride]
- remaining activity at 1.25 µM ([1]; Well no.=1350): 99.4%
- remaining activity at 3.75 µM ([2]; Well no.=1350): 102%

SMILES: Cn1cc(C2=C(c3cn(CCCSC(=N)N)c4ccccc34)C(=O)NC2=O)c2ccccc21 [Ro 31-8220 mesylate - 3-[3-[2,5-Dihydro-4-(1-methyl-1H-indol-3-yl)-2,5-dioxo-1H-pyrrol-3-yl]-1H-indol-1-yl]propyl carbamimidothioic acid ester mesylate]
- remaining activity at 1.25 µM ([1]; Well no.=2482): 104%
- remaining activity at 3.75 µM ([2]; Well no.=2482): 102%

SMILES: O=C(c1cc(O)c(O)c([N+](=O)[O-])c1)c1ccccc1F [Ro 41-0960]
- remaining activity at 1.25 µM ([1]; Well no.=1162): 102%
- remaining activity at 3.75 µM ([2]; Well no.=1162): 104%

SMILES: NCCNC(=O)c1ncsc1-c1cccc(F)c1 [Ro 41-1049 hydrochloride]
- remaining activity at 1.25 µM ([1]; Well no.=1496): 95.5%
- remaining activity at 3.75 µM ([2]; Well no.=1496): 94.1%

SMILES: COc1ccc(S(=O)(=O)Nc2nc(-c3cccc([N+](=O)[O-])c3)cs2)cc1OC [Ro 61-8048]
- remaining activity at 1.25 µM ([1]; Well no.=5865): 109%
- remaining activity at 3.75 µM ([2]; Well no.=5865): 106%

SMILES: CCCCOC(=O)NC(=O)C1c2ccccc2Oc2ccccc21 [Ro 67-4853]
- remaining activity at 1.25 µM ([1]; Well no.=5989): 102%
- remaining activity at 3.75 µM ([2]; Well no.=5989): 99.5%

SMILES: Cc1ccc(S(=O)(=O)N2CCC[C@H]2c2ccc(F)cc2)cc1 [Ro 67-7476]
- remaining activity at 1.25 µM ([1]; Well no.=8053): 99.6%
- remaining activity at 3.75 µM ([2]; Well no.=8053): 102%

SMILES: Cn1cc(C2=C(c3cn(CCCSC(=N)N)c4ccccc34)C(=O)NC2=O)c2ccccc21 [Ro-31-8220]
- remaining activity at 1.25 µM ([1]; Well no.=2633): 98.6%
- remaining activity at 3.75 µM ([2]; Well no.=2633): 96.9%

SMILES: O=C(CCCCCCNC(=O)c1cnc(N(c2ccccc2)c2ccccc2)nc1)NO [Rocilinostat (ACY-1215)]
- remaining activity at 1.25 µM ([1]; Well no.=4786): 101%
- remaining activity at 3.75 µM ([2]; Well no.=4786): 102%

SMILES: C=CC[N+]1([C@H]2C[C@H]3[C@@H]4CC[C@H]5C[C@H](O)[C@@H](N6CCOCC6)C[C@]5(C)[C@H]4CC[C@]3(C)[C@H]2OC(C)=O)CCCC1 [Rocuronium bromide]
- remaining activity at 1.25 µM ([1]; Well no.=2019): 103%
- remaining activity at 3.75 µM ([2]; Well no.=2019): 105%

SMILES: CS(=O)(=O)c1ccc(C2=C(c3ccccc3)C(=O)OC2)cc1 [Rofecoxib]
- remaining activity at 1.25 µM ([1]; Well no.=1724): 101%
- remaining activity at 3.75 µM ([2]; Well no.=1724): 100%

SMILES: O=C(Nc1c(Cl)cncc1Cl)c1ccc(OC(F)F)c(OCC2CC2)c1 [Roflumilast]
- remaining activity at 1.25 µM ([1]; Well no.=5877): 94.1%
- remaining activity at 3.75 µM ([2]; Well no.=5877): 94.8%

SMILES: C[C@@H](OC[C@@]1(c2ccccc2)CC[C@]2(CCC(=O)N2)CN1)c1cc(C(F)(F)F)cc(C(F)(F)F)c1 [Rolapitant]
- remaining activity at 1.25 µM ([1]; Well no.=7469): 104%
- remaining activity at 3.75 µM ([2]; Well no.=7469): 96.2%

SMILES: COc1ccc(C2CNC(=O)C2)cc1OC1CCCC1 (stereo not drawn) [Rolipram]
- remaining activity at 1.25 µM ([1]; Well no.=1302): 102%
- remaining activity at 1.25 µM ([1]; Well no.=2152): 101%
- remaining activity at 3.75 µM ([2]; Well no.=1302): 103%
- remaining activity at 3.75 µM ([2]; Well no.=2152): 102%

SMILES: Cn1c([N+](=O)[O-])cnc1COC(N)=O [Ronidazole]
- remaining activity at 1.25 µM ([1]; Well no.=4700): 99.8%
- remaining activity at 3.75 µM ([2]; Well no.=4700): 96.7%

SMILES: CCCN(CCC)CCc1cccc2c1CC(=O)N2 [Ropinirole (hydrochloride)]
- remaining activity at 1.25 µM ([1]; Well no.=8205): 99.3%
- remaining activity at 3.75 µM ([2]; Well no.=8205): 90.6%

SMILES: CCCN(CCC)CCc1cccc2c1CC(=O)N2 [Ropinirole hydrochloride]
- remaining activity at 1.25 µM ([1]; Well no.=1444): 93.6%
- remaining activity at 3.75 µM ([2]; Well no.=1444): 97.7%

SMILES: CCCN1CCCC[C@H]1C(=O)Nc1c(C)cccc1C [Ropivacaine HCl]
- remaining activity at 1.25 µM ([1]; Well no.=4698): 99%
- remaining activity at 3.75 µM ([2]; Well no.=4698): 96.6%

SMILES: CCCN1CCCC[C@H]1C(=O)Nc1c(C)cccc1C [Ropivacaine hydrochloride]
- remaining activity at 1.25 µM ([1]; Well no.=5891): 98.9%
- remaining activity at 3.75 µM ([2]; Well no.=5891): 97.5%

SMILES: CN(C(=O)c1c(O)c2ccccc2n(C)c1=O)c1ccccc1 [Roquinimex]
- remaining activity at 1.25 µM ([1]; Well no.=6160): 103%
- remaining activity at 3.75 µM ([2]; Well no.=6160): 96.9%

SMILES: O[C@@H]1[C@@H](O)[C@H](OC/C=C/c2ccccc2)O[C@H](CO[C@@H]2OC[C@H](O)[C@H](O)[C@H]2O)[C@H]1O [Rosavin]
- remaining activity at 1.25 µM ([1]; Well no.=5422): 101%
- remaining activity at 3.75 µM ([2]; Well no.=5422): 104%

SMILES: CN(CCOc1ccc(CC2SC(=O)NC2=O)cc1)c1ccccn1 (stereo not drawn) [Rosiglitazone (Avandia)]
- remaining activity at 1.25 µM ([1]; Well no.=4924): 95.4%
- remaining activity at 3.75 µM ([2]; Well no.=4924): 89.9%

SMILES: CN(CCOc1ccc(CC2SC(=O)NC2=O)cc1)c1ccccn1 (stereo not drawn) [Rosiglitazone HCl]
- remaining activity at 1.25 µM ([1]; Well no.=4758): 102%
- remaining activity at 3.75 µM ([2]; Well no.=4758): 97.3%

SMILES: CN(CCOc1ccc(CC2SC(=O)NC2=O)cc1)c1ccccn1 (stereo not drawn) [Rosiglitazone maleate]
- remaining activity at 1.25 µM ([1]; Well no.=1651): 104%
- remaining activity at 3.75 µM ([2]; Well no.=1651): 105%

SMILES: O=C(/C=C/c1ccc(O)c(O)c1)O[C@H](Cc1ccc(O)c(O)c1)C(=O)O [Rosmarinic acid]
- remaining activity at 1.25 µM ([1]; Well no.=3940): 102%
- remaining activity at 1.25 µM ([1]; Well no.=4516): 95%
- remaining activity at 3.75 µM ([2]; Well no.=3140): 103%
- remaining activity at 3.75 µM ([2]; Well no.=3940): 99.3%
- remaining activity at 3.75 µM ([2]; Well no.=4516): 94.6%

SMILES: CC(C)c1nc(N(C)S(C)(=O)=O)nc(-c2ccc(F)cc2)c1/C=C/[C@@H](O)C[C@@H](O)CC(=O)O [Rosuvastatin Calcium]
- remaining activity at 1.25 µM ([1]; Well no.=8240): 96.8%
- remaining activity at 3.75 µM ([2]; Well no.=8240): 93.8%

SMILES: C=C(C)[C@H]1Cc2c(ccc3c2O[C@@H]2COc4cc(OC)c(OC)cc4[C@@H]2C3=O)O1 [Rotenone]
- remaining activity at 1.25 µM ([1]; Well no.=1494): 97.2%
- remaining activity at 1.25 µM ([1]; Well no.=3142): 104%
- remaining activity at 1.25 µM ([1]; Well no.=7122): 91.7%
- remaining activity at 3.75 µM ([2]; Well no.=1494): 98.9%
- remaining activity at 3.75 µM ([2]; Well no.=3142): 98.6%
- remaining activity at 3.75 µM ([2]; Well no.=7122): 89.8%

SMILES: CCCN(CCc1cccs1)[C@H]1CCc2c(O)cccc2C1 [Rotigotine (Hydrochloride)]
- remaining activity at 1.25 µM ([1]; Well no.=8157): 96.4%
- remaining activity at 3.75 µM ([2]; Well no.=8157): 89.4%

SMILES: CCCN(CCc1cccs1)[C@H]1CCc2c(O)cccc2C1 [Rotigotine]
- remaining activity at 1.25 µM ([1]; Well no.=8349): 92.3%
- remaining activity at 3.75 µM ([2]; Well no.=8349): 88.8%

SMILES: CC(=O)c1c(O)c(C)c(O)c(Cc2c(O)c3c(c(C(=O)/C=C/c4ccccc4)c2O)OC(C)(C)C=C3)c1O [Rottlerin]
- remaining activity at 1.25 µM ([1]; Well no.=1206): 103%
- remaining activity at 3.75 µM ([2]; Well no.=1206): 102%

SMILES: COc1cc2c(cc1OC)[C@@H]1Cc3ccc(OC)c(OC)c3CN1CC2 [Rotundine]
- remaining activity at 1.25 µM ([1]; Well no.=4894): 96.9%
- remaining activity at 3.75 µM ([2]; Well no.=4894): 94.7%

SMILES: CC(=O)OCC(=O)NCCCOc1cccc(CN2CCCCC2)c1 [Roxatidine (Acetate Hydrochloride)]
- remaining activity at 1.25 µM ([1]; Well no.=6701): 102%
- remaining activity at 3.75 µM ([2]; Well no.=6701): 105%
